Assay results: patent US11142527B2, “Dihydropyrimidine compounds and uses thereof in medicine” (SUNSHINE LAKE PHARMA CO., LTD., priority 2017, dated 2021)

How the values were obtained:
[1] = Cytotoxicity test with CellTiter Glo; assay type: cell-based; details: human, HepG2.2.15 cells, highest concentration 150 μM, read-out: CC50 values of the compounds of the invention
Procedure, shortened: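 HepG2.2.15 cells (3000/well) exposed to serially diluted compound, highest final concentration 150 μM, for 4 days at 37 °C. Viability read by CellTiter Glo, cytotoxicity % taken relative to DMSO controls, and CC50 obtained by four-parameter nonlinear regression.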

HBV = assay: Test of anti HBV activity in vitro (viral DNA by qPCR); assay type: cell-based; details: Hepatitis B virus; HepG2.2.15 cells, viral DNA in cell culture supernatant by qPCR; read-out: EC50 values of the compound of the invention on viral replication
Procedure, shortened: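 HepG2.2.15 cells (integrated HBV genome) were grown to confluence, then treated with compound in 4-fold dilutions from 4 μM final (0.5% DMSO). Secreted viral DNA in supernatant was quantified by SYBR qPCR against an HBV plasmid standard curve; EC50 from four-parameter nonlinear regression of concentration versus copy number.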

| SMILES | CC50 at 4 days [1] | EC50 (HBV) |
| --- | --- | --- |
| COC(=O)C1=C(CN2CCN3C(=O)N(c4ccc(Oc5ccc(C(C)(C)O)cc5)cc4)C[C@@H]3C2)NC(c2nccs2)=N[C@H]1c1ccc(F)cc1Cl [Example 100, (R)-methyl 4-(2-chloro-4-fluorophenyl)-6-(((S)-2-(4-(4-(2-hydroxyprop-2-yl)phenoxy)phenyl)-3-oxohexahydroimidazo[1,5-a]pyrazin-7(1H)-yl)methyl)-2-(thiazol-2-yl)-1,4-dihydropyrimidine-5-carboxylate] | > 150000 nM | 16.8 nM |
| COC(=O)C1=C(CN2CCN3C(=O)N(Cc4ccc(Oc5ccc(C#N)cc5)cc4)C[C@@H]3C2)NC(c2nccs2)=N[C@H]1c1ccc(F)cc1Cl [Example 102, (R)-methyl 4-(2-chloro-4-fluorophenyl)-6-(((S)-2-(4-(4-cyanophenoxy)benzyl)-3-oxohexahydroimidazo[1,5-a]pyrazin-7(1H)-yl)methyl)-2-(thiazol-2-yl)-1,4-dihydropyrimidine-5-carboxylate] | > 150000 nM | 4.2 nM |
| COC(=O)C1=C(CN2CCN3C(=O)N(c4ccc(Oc5ccc(OC)cc5)cc4)C[C@@H]3C2)NC(c2nccs2)=N[C@H]1c1ccc(F)cc1Cl [Example 103, (R)-methyl 4-(2-chloro-4-fluorophenyl)-6-(((S)-2-(4-(4-methoxyphenoxy)phenyl)-3-oxohexahydroimidazo[1,5-a]pyrazin-7(1H)-yl)methyl)-2-me (thiazol-2-yl)-1,4-dihydropyrimidine-5-carboxylate] | > 150000 nM | 19.4 nM |
| COC(=O)C1=C(CN2CCN3C(=O)N(c4ccc(Sc5ccc(OC(C)C)cc5)cc4)C[C@@H]3C2)NC(c2nccs2)=N[C@H]1c1ccc(F)cc1Cl [Example 105, (R)-methyl 4-(2-chloro-4-fluorophenyl)-6-(((S)-2-(4-((4-isopropoxyphenyl)thio)phenyl)-3-oxohexahydroimidazo[1,5-a]pyrazin-7(1H)-yl)methyl)-2-(thiazol-2-yl)-1,4-dihydropyrimidine-5-carboxylate] | > 150000 nM | 29 nM |
| COC(=O)C1=C(CN2CCN3C(=O)N(c4ccc(Oc5ccc(S(C)(=O)=O)cc5)cc4)C[C@@H]3C2)NC(c2nccs2)=N[C@H]1c1ccc(F)cc1Cl [Example 106, (R)-methyl 4-(2-chloro-4-fluorophenyl)-6-(((S)-2-(4-(4-(methylsulfonyl)phenoxy)phenyl)-3-oxohexahydroimidazo[1,5-a]pyrazin-7(1H)-yl)methyl)-2-(thiazol-2-yl)-1,4-dihydropyrimidine-5-carboxylate] | > 150000 nM | 6.2 nM |
| COC(=O)C1=C(CN2CCN3C(=O)N(c4ccc(-c5nc(C6CC6)c[nH]5)cc4)C[C@@H]3C2)NC(c2nccs2)=N[C@H]1c1ccc(F)cc1Cl [Example 111, (R)-methyl 4-(2-chloro-4-fluorophenyl)-6-(((S)-2-(4-(4-cyclopropyl-1H-imidazol-2-yl)phenyl)-3-oxohexahydroimidazo[1,5-a]pyrazin-7(1H)-yl)methyl)-2-(thiazol-2-yl)-1,4-dihydropyrimidine-5-carboxylate] | > 150000 nM | 7.5 nM |
| COC(=O)C1=C(CN2CCN3C(=O)N(c4ccc(OC5CCC(C(=O)O)CC5)cc4F)C[C@@H]3C2)NC(c2nccs2)=N[C@H]1c1ccc(F)cc1Cl (stereo partly drawn) [Example 112, 4-(4-((S)-7-(((R)-6-(2-chloro-4-fluorophenyl)-5-(methoxycarbonyl)-2-(thiazol-2-yl)-3,6-dihydropyrimidin-4-yl)methyl)-3-oxohexahydroimidazo[1,5-a]pyrazin-2(3H)-yl)-3-fluorophenoxy)cyclohexane carboxylic acid] | > 150000 nM | 15.4 nM |
| COC(=O)C1=C(CN2CCN3C(=O)N(c4ccc(F)c(-c5ccc(C(=O)O)cc5)c4)C[C@@H]3C2)NC(c2nccs2)=N[C@H]1c1ccc(F)cc1Cl [Example 114, 5′-((S)-7-(((R)-6-(2-chloro-4-fluorophenyl)-5-(methoxycarbonyl)-2-(thiazol-2-yl)-3,6-dihydropyrimidin-4-yl)methyl)-3-oxohexahydroimidazo[1,5-a]pyrazin-2(3H)-yl)-2′-fluoro-[1,1′-biphenyl]-4-carboxylic acid] | > 150000 nM | 27.7 nM |
| COC(=O)C1=C(CN2CCN3C(=O)N(c4ccc(-c5cc(C(=O)O)ccc5F)cc4)C[C@@H]3C2)NC(c2nccs2)=N[C@H]1c1ccc(F)cc1Cl [Example 116] | > 150000 nM | 19.9 nM |
| COC(=O)C1=C(CN2CCN3C(=O)N(c4cc(F)cc(-c5ccc(C(=O)O)cc5)c4)C[C@@H]3C2)NC(c2nccs2)=N[C@H]1c1ccc(F)cc1Cl [Example 117, 3′-((S)-7-(((R)-6-(2-chloro-4-fluorophenyl)-5-(methoxycarbonyl)-2-(thiazol-2-yl)-3,6-dihydroprimidin-4-yl)methyl)-3-oxohexahydroimidazo[1,5-a]pyrazin-2(3H)-yl)-5′-fluoro-[1,1′-biphenyl]-4-carboxylic acid] | > 150000 nM | 18.8 nM |
| COC(=O)C1=C(CN2CCN3C(=O)N(c4cc(F)cc(-c5ccc(C(=O)O)cc5F)c4)C[C@@H]3C2)NC(c2nccs2)=N[C@H]1c1ccc(F)cc1Cl [Example 118, 3′-((S)-7-(((R)-6-(2-chloro-4-fluorophenyl)-5-(methoxycarbonyl)-2-(thiazol-2-yl)-3,6-dihydropyrimidin-4-yl)methyl)-3-oxohexahydroimidazo[1,5-a]pyrazin-2(3H)-yl)-2,5′-difluoro-[1,1′-biphenyl]-4-carboxylic acid] | > 150000 nM | 8.9 nM |
| COC(=O)C1=C(CN2CCN3C(=O)N(c4cc(F)cc(-c5ccc(C(=O)O)c(F)c5)c4)C[C@@H]3C2)NC(c2nccs2)=N[C@H]1c1ccc(F)cc1Cl [Example 119] | > 150000 nM | 15.6 nM |
| COC(=O)C1=C(CN2CCN3C(=O)N(c4ccc(-c5ccc(C(=O)O)cc5)nc4)C[C@@H]3C2)NC(c2nccs2)=N[C@H]1c1ccc(F)cc1Cl [Example 122, 4-(5-((S)-7-(((R)-6-(2-chloro-4-fluorophenyl)-5-(methoxycarbonyl)-2-(thiazol-2-yl)-3,6-dihydropyrimidin-4-yl)methyl)-3-oxohexahydroimidazo[1,5-a]pyrazin-2(3H)-yl)pyridin-2-yl)benzoic acid] | > 150000 nM | 45.6 nM |
| COC(=O)C1=C(CN2CCN3C(=O)N(c4ccnc(-c5ccc(C(=O)O)cc5)c4)C[C@@H]3C2)NC(c2nccs2)=N[C@H]1c1ccc(F)cc1Cl [Example 123, 4-(4-((S)-7-(((R)-6-(2-chloro-4-fluorophenyl)-5-(methoxycarbonyl)-2-(thiazol-2-yl)-3,6-dihydropyrimidin-4-yl)methyl)-3-oxohexahydroimidazo[1,5-a]pyrazin-2(3H)-yl)pyridin-2-yl)benzoic acid] | > 150000 nM | 37.9 nM |
| COC(=O)C1=C(CN2CCN3C(=O)N(c4ccc(-c5ccc(C(C)(C)C(=O)O)cc5)nc4)C[C@@H]3C2)NC(c2nccs2)=N[C@H]1c1ccc(F)cc1Cl [Example 125, 2-(4-(5-((S)-7-(((R)-6-(2-chloro-4-fluorophenyl)-5-(methoxycarbonyl)-2-(thiazol-2-yl)-3,6-dihydropyrimidin-4-yl)methyl)-3-oxohexahydroimidazo[1,5-a]pyrazin-2(3H)-yl)pyridin-2-yl)phenyl)-2-methylpropanoic acid] | > 150000 nM | 21 nM |
| COC(=O)C1=C(CN2CCN3C(=O)N(c4ccc(-c5ccc(CCC(=O)O)cc5)cc4)C[C@@H]3C2)NC(c2nccs2)=N[C@H]1c1ccc(F)cc1Cl [Example 126, 3-(4′-((S)-7-(((R)-6-(2-chloro-4-fluorophenyl)-5-(methoxycarbonyl)-2-(thiazol-2-yl)-3,6-dihydropyrimidin-4-yl)methyl)-3-oxohexahydroimidazo[1,5-a]pyrazin-2(3H)-yl)-[1,1′-biphenyl]-4-yl)propanoic acid] | > 150000 nM | 6.7 nM |
| COC(=O)C1=C(CN2CCN3C(=O)N(c4nc(-c5ccc(CCC(=O)O)cc5)cs4)C[C@@H]3C2)NC(c2nccs2)=N[C@H]1c1ccc(F)cc1Cl [Example 135, 3-(4-(2-((S)-7-(((R)-6-(2-chloro-4-fluorophenyl)-5-(methoxycarbonyl)-2-(thiazol-2-yl)-3,6-dihydropyrimidin-4-yl)methyl)-3-oxohexahydroimidazo[1,5-a]pyrazin-2(3H)-yl)thiazol-4-yl)phenyl)propanoic acid] | > 150000 nM | 6.5 nM |
| COC(=O)C1=C(CN2CCN3C(=O)N(c4nc(-c5ccc(C(=O)O)cc5F)cs4)C[C@@H]3C2)NC(c2nccs2)=N[C@H]1c1ccc(F)cc1Cl [Example 136, 4-(2-((S)-7-(((R)-6-(2-chloro-4-fluorophenyl)-5-(methoxycarbonyl)-2-(thiazol-2-yl)-3,6-dihydropyrimidin-4-yl)methyl)-3-oxohexahydroimidazo[1,5-a]pyrazin-2(3H)-yl)thiazol-4-yl)-3-fluorobenzoic acid] | > 150000 nM | 20.1 nM |
| COC(=O)C1=C(CN2CCN3C(=O)N(c4nc(-c5ccc(C(=O)O)c(F)c5)cs4)C[C@@H]3C2)NC(c2nccs2)=N[C@H]1c1ccc(F)cc1Cl [Example 137, 4-(2-((S)-7-(((R)-6-(2-chloro-4-fluorophenyl)-5-(methoxycarbonyl)-2-(thiazol-2-yl)-3,6-dihydropyrimidin-4-yl)methyl)-3-oxohexahydroimidazo[1,5-a]pyrazin-2(3H)-yl)thiazol-4-yl)-2-fluorobenzoic acid] | > 150000 nM | 10 nM |
